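A five-concentration, 48-hour dose response in 96-well plates underlies each endpoint, interpolated linearly between surrounding concentrations. At the GI50, growth is halved.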 The source made the active and inactive calls. Rule as the data show it: active = GI50 up to about 1.1 µM and inactive = higher.
Assays:
Assay in all cases: DTP human tumour cell line panel, 48 h
[1] = test system: ACHN
[2] = test system: HCC 2998
[3] = test system: HCT-116
[4] = test system: IGROV-1
[5] = test system: KM12
[6] = test system: LOX IMVI
[7] = test system: MCF7
[8] = test system: Malme-3M
[9] = test system: NCI-H226
[10] = test system: NCI-H23
[11] = test system: NCI-H522
[12] = test system: OVCAR-8
[13] = test system: SF-539
[14] = test system: SNB-19
[15] = test system: SW-620
[16] = test system: TK-10
[17] = test system: U-251
[18] = test system: UACC-257
[19] = test system: UACC-62
[20] = test system: UO-31

Compound | GI50 [1] | GI50 [2] | GI50 [3] | GI50 [4] | GI50 [5] | GI50 [6] | GI50 [7] | GI50 [8] | GI50 [9] | GI50 [10] | GI50 [11] | GI50 [12] | GI50 [13] | GI50 [14] | GI50 [15] | GI50 [16] | GI50 [17] | GI50 [18] | GI50 [19] | GI50 [20]
Cn1c(=O)c2[nH]c(CCC(=O)O)nc2n(C)c1=O | > 100 µM (inactive) | > 100 µM (inactive) | > 100 µM (inactive) | > 100 µM (inactive) | > 100 µM (inactive) | > 100 µM (inactive) | > 100 µM (inactive) | > 100 µM (inactive) | > 100 µM (inactive) | > 100 µM (inactive) | > 100 µM (inactive) | > 100 µM (inactive) | > 100 µM (inactive) | > 100 µM (inactive) | > 100 µM (inactive) | > 100 µM (inactive) | > 100 µM (inactive) | > 100 µM (inactive) | > 100 µM (inactive) | > 100 µM (inactive)
O=C(O)c1cc(Cl)cc2c1NC1(N2)C(=O)Nc2ccccc21 (stereo not given) | > 100 µM (inactive) | > 100 µM (inactive) | 56.4 µM (inactive) | 33.3 µM (inactive) | > 100 µM (inactive) | 49 µM (inactive) | > 100 µM (inactive) | 69.2 µM (inactive) | > 100 µM (inactive) | > 100 µM (inactive) | > 100 µM (inactive) | 39.6 µM (inactive) | > 100 µM (inactive) | > 100 µM (inactive) | 73.6 µM (inactive) | > 100 µM (inactive) | 42.5 µM (inactive) | > 100 µM (inactive) | > 100 µM (inactive) | > 100 µM (inactive)
CCN(CC)CCn1nc(N)c2nc3ccccc3nc21 | > 100 µM (inactive) | > 100 µM (inactive) | 53.8 µM (inactive) | > 100 µM (inactive) | > 100 µM (inactive) | > 100 µM (inactive) | > 100 µM (inactive) | > 100 µM (inactive) | > 100 µM (inactive) | > 100 µM (inactive) | 96.4 µM (inactive) | > 100 µM (inactive) | > 100 µM (inactive) | > 100 µM (inactive) | 93.5 µM (inactive) | > 100 µM (inactive) | > 100 µM (inactive) | > 100 µM (inactive) | > 100 µM (inactive) | > 100 µM (inactive)
Cc1ccc(-c2n[nH]c(=O)[nH]2)cc1 | > 100 µM (inactive) | > 100 µM (inactive) | > 100 µM (inactive) | > 100 µM (inactive) | > 100 µM (inactive) | > 100 µM (inactive) | > 100 µM (inactive) | > 100 µM (inactive) | > 100 µM (inactive) | > 100 µM (inactive) | > 100 µM (inactive) | > 100 µM (inactive) | > 100 µM (inactive) | > 100 µM (inactive) | > 100 µM (inactive) | > 100 µM (inactive) | > 100 µM (inactive) | > 66.1 µM (inactive) | > 100 µM (inactive) | > 100 µM (inactive)
C[C@H]1CCC/C=C/[C@@H]2C[C@H](OC(=O)CN(C)C)C[C@H]2[C@H](O)/C=C/C(=O)O1 | 0.2 µM (active) | 0.0612 µM (active) | 0.242 µM (active) | 0.57 µM (active) | 0.0522 µM (active) | 0.0861 µM (active) | 0.187 µM (active) | 0.0738 µM (active) | 0.0288 µM (active) | 0.129 µM (active) | 0.425 µM (active) | 0.097 µM (active) | 0.148 µM (active) | 0.319 µM (active) | 0.156 µM (active) | 0.1 µM (active) | 0.254 µM (active) | 0.109 µM (active) | 0.108 µM (active) | 0.0581 µM (active)
Cc1cc(Br)cc(C)c1NC(=O)C(=O)Nn1c(S)nc2ccccc2c1=O | > 100 µM (inactive) | > 100 µM (inactive) | > 100 µM (inactive) | > 100 µM (inactive) | > 100 µM (inactive) | > 100 µM (inactive) | > 100 µM (inactive) | > 100 µM (inactive) | > 100 µM (inactive) | > 100 µM (inactive) | > 100 µM (inactive) | > 100 µM (inactive) | > 100 µM (inactive) | 78.9 µM (inactive) | > 100 µM (inactive) | > 100 µM (inactive) | > 100 µM (inactive) | > 100 µM (inactive) | > 100 µM (inactive) | > 100 µM (inactive)
Nc1c2ccccc2nc2c1ccc1ncccc12 | 5.38 µM (inactive) | 8.99 µM (inactive) | 5.22 µM (inactive) | 12.9 µM (inactive) | 15.1 µM (inactive) | 6.03 µM (inactive) | 6.46 µM (inactive) | 12.4 µM (inactive) | 13.9 µM (inactive) | 17.4 µM (inactive) | 12 µM (inactive) | 21.2 µM (inactive) | 14.7 µM (inactive) | 36.8 µM (inactive) | 11.7 µM (inactive) | 34.1 µM (inactive) | 39.1 µM (inactive) | 28.8 µM (inactive) | 14.5 µM (inactive) | 10.1 µM (inactive)
C[C@H]1CC[C@@H]2[C@@H](C)[C@H]3[C@H](C[C@H]4[C@@H]5CC=C6C[C@@H](O)CC[C@]6(C)[C@H]5C[C@H](O)[C@]34C)N2C1 | > 100 µM (inactive) | > 100 µM (inactive) | > 100 µM (inactive) | > 100 µM (inactive) | > 100 µM (inactive) | > 100 µM (inactive) | > 100 µM (inactive) | > 100 µM (inactive) | > 100 µM (inactive) | > 100 µM (inactive) | > 100 µM (inactive) | > 100 µM (inactive) | > 100 µM (inactive) | > 100 µM (inactive) | > 100 µM (inactive) | > 100 µM (inactive) | > 100 µM (inactive) | > 100 µM (inactive) | > 100 µM (inactive) | > 100 µM (inactive)
CS/C(=N\Nc1cnc2ccccc2n1)NS(=O)(=O)c1cc(C)c(Cl)cc1Cl | > 100 µM (inactive) | > 100 µM (inactive) | > 100 µM (inactive) | 21.1 µM (inactive) | > 100 µM (inactive) | 61.1 µM (inactive) | 65.6 µM (inactive) | > 100 µM (inactive) | > 100 µM (inactive) | > 100 µM (inactive) | > 100 µM (inactive) | > 100 µM (inactive) | > 100 µM (inactive) | > 100 µM (inactive) | > 100 µM (inactive) | 82 µM (inactive) | > 100 µM (inactive) | > 100 µM (inactive) | 50.7 µM (inactive) | 33.9 µM (inactive)
O=[N+]([O-])c1ccc(CN(CCCl)OCCCl)cc1 | 64.3 µM (inactive) | 84.1 µM (inactive) | 80.7 µM (inactive) | 75.9 µM (inactive) | > 100 µM (inactive) | 55.7 µM (inactive) | 83.4 µM (inactive) | > 100 µM (inactive) | > 100 µM (inactive) | 76.7 µM (inactive) | 31.3 µM (inactive) | > 100 µM (inactive) | > 100 µM (inactive) | > 100 µM (inactive) | 91.2 µM (inactive) | > 100 µM (inactive) | > 100 µM (inactive) | 70.1 µM (inactive) | 55.8 µM (inactive) | 37.8 µM (inactive)
O=C(O)C(=Cc1ccc(-c2ccc([N+](=O)[O-])cc2)o1)C(=O)O | > 100 µM (inactive) | > 100 µM (inactive) | > 100 µM (inactive) | > 100 µM (inactive) | > 100 µM (inactive) | > 100 µM (inactive) | > 100 µM (inactive) | > 100 µM (inactive) | > 100 µM (inactive) | > 100 µM (inactive) | > 100 µM (inactive) | > 100 µM (inactive) | > 100 µM (inactive) | > 100 µM (inactive) | > 100 µM (inactive) | > 100 µM (inactive) | > 100 µM (inactive) | > 100 µM (inactive) | > 100 µM (inactive) | > 100 µM (inactive)
O=C(NCCCl)N(O)C(=O)Nc1ccccc1 | > 100 µM (inactive) | > 100 µM (inactive) | > 100 µM (inactive) | > 100 µM (inactive) | > 100 µM (inactive) | > 100 µM (inactive) | > 100 µM (inactive) | > 100 µM (inactive) | > 100 µM (inactive) | > 100 µM (inactive) | > 100 µM (inactive) | > 100 µM (inactive) | > 100 µM (inactive) | > 100 µM (inactive) | > 100 µM (inactive) | > 100 µM (inactive) | > 100 µM (inactive) | > 100 µM (inactive) | > 100 µM (inactive) | > 100 µM (inactive)
BrC1=C(Br)C2(SCCS2)[C@H]2C[C@@H]1c1ccccc12 | > 44 µM (inactive) | 21.3 µM (inactive) | 13.1 µM (inactive) | 55 µM (inactive) | 11.6 µM (inactive) | 43.7 µM (inactive) | 22.3 µM (inactive) | 32.1 µM (inactive) | 64.1 µM (inactive) | 33.9 µM (inactive) | 13.2 µM (inactive) | > 100 µM (inactive) | 41.3 µM (inactive) | > 100 µM (inactive) | 35.3 µM (inactive) | > 100 µM (inactive) | 37.8 µM (inactive) | 52.6 µM (inactive) | 65.8 µM (inactive) | 29.4 µM (inactive)
COC(=O)c1ccc(C)cc1C1CN=NC12Cc1cc(C)ccc1C2=O (stereo not given) | 28.1 µM (inactive) | 23.8 µM (inactive) | 7.64 µM (inactive) | 8.85 µM (inactive) | 6.14 µM (inactive) | 10.4 µM (inactive) | 3.61 µM (inactive) | 13.2 µM (inactive) | 21.2 µM (inactive) | 18.1 µM (inactive) | 5.06 µM (inactive) | 27.2 µM (inactive) | 13.9 µM (inactive) | 18.8 µM (inactive) | 5.35 µM (inactive) | 22.8 µM (inactive) | 11.7 µM (inactive) | 17.7 µM (inactive) | 8 µM (inactive) | 24 µM (inactive)

From ChEMBL document CHEMBL1201862, “PubChem BioAssay data set” (2004)
